From the NIST ThermoML archive (doi:10.1021/je8008073)

Assay: wn = mass fraction of the nth substance listed
Details: Liquid; for mass density: Vibrating tube method; for viscosity: Falling or rolling sphere viscometry

CC(C)Cc1ccccc1 [(2-methylpropyl)benzene] + CCCCCCCCCCCC
Details | mass density [kg/m3] | viscosity [mPa·s]
293.15 K, 100 kPa, w2 = 0.5 | 795.4 | –
293.15 K, 2000 kPa, w2 = 0.5 | 796.7 | –
293.15 K, 4000 kPa, w2 = 0.5 | 798.1 | –
293.15 K, 6000 kPa, w2 = 0.5 | 799.5 | –
293.15 K, 8000 kPa, w2 = 0.5 | 801.1 | –
293.15 K, 10000 kPa, w2 = 0.5 | 802.5 | –
293.15 K, 12000 kPa, w2 = 0.5 | 803.7 | –
293.15 K, 14000 kPa, w2 = 0.5 | 805 | –
293.15 K, 16000 kPa, w2 = 0.5 | 806.3 | –
293.15 K, 18000 kPa, w2 = 0.5 | 807.6 | –
293.15 K, 20000 kPa, w2 = 0.5 | 808.9 | –
295.65 K, 100 kPa, w2 = 0.5 | 793.6 | –
295.65 K, 2000 kPa, w2 = 0.5 | 794.9 | –
295.65 K, 4000 kPa, w2 = 0.5 | 796.3 | –
295.65 K, 6000 kPa, w2 = 0.5 | 797.7 | –
295.65 K, 8000 kPa, w2 = 0.5 | 799.1 | –
295.65 K, 10000 kPa, w2 = 0.5 | 800.5 | –
295.65 K, 12000 kPa, w2 = 0.5 | 801.8 | –
295.65 K, 14000 kPa, w2 = 0.5 | 803.1 | –
295.65 K, 16000 kPa, w2 = 0.5 | 804.3 | –
295.65 K, 18000 kPa, w2 = 0.5 | 805.6 | –
295.65 K, 20000 kPa, w2 = 0.5 | 806.8 | –
298.15 K, 100 kPa, w1 = 0.48 | 789.5 | –
298.15 K, 100 kPa, w1 = 0.49 | 790.4 | –
298.15 K, 100 kPa, w1 = 0.5 | 791.7 | –
298.15 K, 100 kPa, w1 = 0.51 | 792.7 | –
298.15 K, 100 kPa, w1 = 0.52 | 793.6 | –
298.15 K, 100 kPa, w2 = 0.5 | 791.7 | 1.09
298.15 K, 2000 kPa, w1 = 0.48 | 790.9 | –
298.15 K, 2000 kPa, w1 = 0.49 | 792 | –
298.15 K, 2000 kPa, w1 = 0.5 | 793.1 | –
298.15 K, 2000 kPa, w1 = 0.51 | 794.1 | –
298.15 K, 2000 kPa, w1 = 0.52 | 795.2 | –
298.15 K, 2000 kPa, w2 = 0.5 | 793.1 | –
298.15 K, 4000 kPa, w1 = 0.48 | 792.4 | –
298.15 K, 4000 kPa, w1 = 0.49 | 793.5 | –
298.15 K, 4000 kPa, w1 = 0.5 | 794.5 | –
298.15 K, 4000 kPa, w1 = 0.51 | 795.7 | –
298.15 K, 4000 kPa, w1 = 0.52 | 796.6 | –
298.15 K, 4000 kPa, w2 = 0.5 | 794.5 | 1.14
298.15 K, 6000 kPa, w1 = 0.48 | 793.9 | –
298.15 K, 6000 kPa, w1 = 0.49 | 794.9 | –
298.15 K, 6000 kPa, w1 = 0.5 | 795.9 | –
298.15 K, 6000 kPa, w1 = 0.51 | 797 | –
298.15 K, 6000 kPa, w1 = 0.52 | 797.9 | –
298.15 K, 6000 kPa, w2 = 0.5 | 795.9 | –
298.15 K, 8000 kPa, w1 = 0.48 | 795.3 | –
298.15 K, 8000 kPa, w1 = 0.49 | 796.3 | –
298.15 K, 8000 kPa, w1 = 0.5 | 797.3 | –
298.15 K, 8000 kPa, w1 = 0.51 | 798.4 | –
298.15 K, 8000 kPa, w1 = 0.52 | 799.3 | –
298.15 K, 8000 kPa, w2 = 0.5 | 797.3 | –
298.15 K, 10000 kPa, w1 = 0.48 | 796.6 | –
298.15 K, 10000 kPa, w1 = 0.49 | 797.4 | –
298.15 K, 10000 kPa, w1 = 0.5 | 798.6 | –
298.15 K, 10000 kPa, w1 = 0.51 | 799.7 | –
298.15 K, 10000 kPa, w1 = 0.52 | 800.6 | –
298.15 K, 10000 kPa, w2 = 0.5 | 798.6 | 1.22
298.15 K, 12000 kPa, w1 = 0.48 | 797.9 | –
298.15 K, 12000 kPa, w1 = 0.49 | 798.7 | –
298.15 K, 12000 kPa, w1 = 0.5 | 799.9 | –
298.15 K, 12000 kPa, w1 = 0.51 | 801 | –
298.15 K, 12000 kPa, w1 = 0.52 | 801.9 | –
298.15 K, 12000 kPa, w2 = 0.5 | 799.9 | –
298.15 K, 14000 kPa, w1 = 0.48 | 799.2 | –
298.15 K, 14000 kPa, w1 = 0.49 | 800.1 | –
298.15 K, 14000 kPa, w1 = 0.5 | 801.3 | –
298.15 K, 14000 kPa, w1 = 0.51 | 802.3 | –
298.15 K, 14000 kPa, w1 = 0.52 | 803.2 | –
298.15 K, 14000 kPa, w2 = 0.5 | 801.3 | –
298.15 K, 16000 kPa, w1 = 0.48 | 800.5 | –
298.15 K, 16000 kPa, w1 = 0.49 | 801.3 | –
298.15 K, 16000 kPa, w1 = 0.5 | 802.6 | –
298.15 K, 16000 kPa, w1 = 0.51 | 803.5 | –
298.15 K, 16000 kPa, w1 = 0.52 | 804.5 | –
298.15 K, 16000 kPa, w2 = 0.5 | 802.6 | –
298.15 K, 18000 kPa, w1 = 0.48 | 801.7 | –
298.15 K, 18000 kPa, w1 = 0.49 | 802.6 | –
298.15 K, 18000 kPa, w1 = 0.5 | 803.8 | –
298.15 K, 18000 kPa, w1 = 0.51 | 804.7 | –
298.15 K, 18000 kPa, w1 = 0.52 | 805.7 | –
298.15 K, 18000 kPa, w2 = 0.5 | 803.8 | –
298.15 K, 20000 kPa, w1 = 0.48 | 803.1 | –
298.15 K, 20000 kPa, w1 = 0.49 | 803.9 | –
298.15 K, 20000 kPa, w1 = 0.5 | 805.1 | –
298.15 K, 20000 kPa, w1 = 0.51 | 806 | –
298.15 K, 20000 kPa, w1 = 0.52 | 807 | –
298.15 K, 20000 kPa, w2 = 0.5 | 805.1 | –
300.65 K, 100 kPa, w2 = 0.5 | 789.9 | –
300.65 K, 2000 kPa, w2 = 0.5 | 791.2 | –
300.65 K, 4000 kPa, w2 = 0.5 | 792.6 | –
300.65 K, 6000 kPa, w2 = 0.5 | 794 | –
300.65 K, 8000 kPa, w2 = 0.5 | 795.4 | –
300.65 K, 10000 kPa, w2 = 0.5 | 796.8 | –
300.65 K, 12000 kPa, w2 = 0.5 | 798.1 | –
300.65 K, 14000 kPa, w2 = 0.5 | 799.4 | –
300.65 K, 16000 kPa, w2 = 0.5 | 800.7 | –
300.65 K, 18000 kPa, w2 = 0.5 | 802 | –
300.65 K, 20000 kPa, w2 = 0.5 | 803.3 | –
303.15 K, 100 kPa, w2 = 0.5 | 788.1 | –
303.15 K, 2000 kPa, w2 = 0.5 | 789.6 | –
303.15 K, 4000 kPa, w2 = 0.5 | 791.1 | –
303.15 K, 6000 kPa, w2 = 0.5 | 792.5 | –
303.15 K, 8000 kPa, w2 = 0.5 | 794 | –
303.15 K, 10000 kPa, w2 = 0.5 | 795.4 | –
303.15 K, 12000 kPa, w2 = 0.5 | 796.7 | –
303.15 K, 14000 kPa, w2 = 0.5 | 798.1 | –
303.15 K, 16000 kPa, w2 = 0.5 | 799.4 | –
303.15 K, 18000 kPa, w2 = 0.5 | 800.8 | –
303.15 K, 20000 kPa, w2 = 0.5 | 802 | –
